This is an account of results in patent EP4570802A1, “SALT TYPE AND CRYSTAL FORM OF BENZAZEPINE FUSED RING COMPOUND AND USE THEREOF” (SHANGHAI JEYOU PHARMACEUTICAL CO., LTD., priority 2022, dated 2024).

Values after ≈ are worked out from the molar mass of the structure shown. Counter-ions that a name gives are not always drawn.

What all share (format): physicochemical
The nature of series [1]: Dynamic vapor sorption analysis (DVS). The procedure: Dynamic vapor sorption analysis was performed using DVS Intrinsic (SMS, UK). The test was performed in gradient mode with a humidity change of 50%-95%-0%-50%, and 10% humidity change per gradient in the range of 0% to 90%. The gradient endpoint was determined by dm/dt, and was defined as when dm/dt was less than 0.002% and maintained for 10 minutes. After the test was completed, the sample was analyzed by XRPD to confirm whether the solid morphology had changed.

Series [2] can be described thus: Solubility test in biological media (dynamic solubility in FaSSIF, FeSSIF, FaSSGF; pH of the 24-hour supernatant; XRPD of remaining solid). The conditions noted are these: for Final pH: 24-hour supernatant; for Solubility (mg/mL) 0.5 h: 30 min; for Solubility (mg/mL) 2h: 120 min; for Solubility (mg/mL) 24 h: 1440 min; for XRPD for remaining solid: remaining solid after 24 hours. The procedure:
Samples of different crystal forms were added to biological media and shaken at a constant temperature of 37°C for 24 hours, followed by sampling at 0.5 hours, 2 hours, and 24 hours, respectively, and the sampled solution was filtered using a 0.22 µm hydrophilic filter membrane. Some of the samples with higher concentrations were appropriately diluted with a diluent, and the signal peak area of the solution was measured by HPLC. Finally, the concentration of the compound in the solution was calculated based on the peak area, the HPLC standard curve of the starting material, and the dilution factor. In addition, the 24-hour supernatant was tested for pH, and the remaining solid was subjected to XRPD testing.

Series [3] in a line: Stability study (solid state, XRPD characterization after 7 days and 15 days). The conditions noted are these: for Results after 7 days: XRPD characterization after 7 days; for Results after 15 days: XRPD characterization after 15 days. The procedure: Approximately 20 mg of sample was weighed into a weighing bottle and exposed to high temperature (60°C), high humidity (25°C/92.5% RH), light (25°C/4500 Lux), and accelerated (40°C/75% RH) conditions, followed by sampling for XRPD characterization after 7 days and 15 days.
Samples were taken for XRPD characterization after 7 days and 15 days. 62 to 65. […]

The mark [4] stands for this setting: FaSSGF, listed as Crystal form A of maleate.
Setting [5] is: FaSSIF, listed as Crystal form A of maleate.
[6] abbreviates: FeSSIF, listed as Crystal form A of maleate.
[7] abbreviates: FaSSGF, listed as Crystal form N.
Setting [8] is: FaSSIF, listed as Crystal form N.
Where [9] appears, read: FeSSIF, listed as Crystal form N.
Where [10] appears, read: Water, listed as Crystal form N.

For `O=C(Nc1ccc(C(=O)N2CC[C@@H]3CCN[C@H]3c3cc(Cl)ccc32)cn1)c1ccccc1C(F)(F)F` [crystal form A of maleate], in series [1] (DVS, at 0% RH), the weight loss is on record as 0.24%. The weight gain turned out to be 0.09% in series [1] (DVS, at 80% RH) and 0.23% in series [1] (DVS, at 95% RH). Moreover, in series [1] (conclusion from DVS), the hygroscopicity entry was “almost no hygroscopicity”. The “XRPD after DVS testing” value in series [1] (solid form after DVS testing) is listed as “no morphological change”. The “Final pH” value amounted to 1.7 in series [2] (setting [4]), 6.1 in series [2] (setting [5]) and 5.0 in series [2] (setting [6]). Further, the “Solubility (mg/mL) 0.5 h” value in series [2] (FaSSGF, pH 1.6, 37°C, 0.5 h, listed as Crystal form A of maleate) is on record as 1.44 mg/mL; in series [2] (FaSSIF, pH 6.5, 37°C, 0.5 h, listed as Crystal form A of maleate), 0.66 mg/mL; in series [2] (FeSSIF, pH 5.0-5.1, 37°C, 0.5 h, listed as Crystal form A of maleate), 1.08 mg/mL. The “Solubility (mg/mL) 2h” value was 1.43 mg/mL in series [2] (FaSSGF, pH 1.6, 37°C, listed as Crystal form A of maleate); 0.69 mg/mL in series [2] (FaSSIF, pH 6.5, 37°C, listed as Crystal form A of maleate); 1.28 mg/mL in series [2] (FeSSIF, pH 5.0-5.1, 37°C, listed as Crystal form A of maleate). For the same compound, the “Solubility (mg/mL) 24 h” value was 1.02 mg/mL in series [2] (FaSSGF, pH 1.6, 37°C, 24 h, listed as Crystal form A of maleate); 0.57 mg/mL in series [2] (FaSSIF, pH 6.5, 37°C, 24 h, listed as Crystal form A of maleate); 0.31 mg/mL in series [2] (FeSSIF, pH 5.0-5.1, 37°C, 24 h, listed as Crystal form A of maleate). The “XRPD for remaining solid” value in series [2] (setting [4]) is on record as “Crystal form A of maleate + new peak”; in series [2] (setting [5]), “Obvious change”; in series [2] (setting [6]), “Obvious change”. The “stability (crystal transformation by XRPD)” value in series [3] (high temperature (60°C), high humidity (25°C/92.5% RH), light (25°C/4500 Lux) and accelerated (40°C/75% RH) conditions, 15 days) is recorded as “stable”.

As to `O=C(Nc1ccc(C(=O)N2CC[C@@H]3CCN[C@H]3c3cc(Cl)ccc32)cn1)c1ccccc1C(F)(F)F` [crystal form N], the “Final pH” value in series [2] (setting [7]) is listed as 2.0; in series [2] (setting [8]), 6.5; in series [2] (setting [9]), 5.1; in series [2] (setting [10]), 7.5. For the same compound, the “Solubility (mg/mL) 0.5 h” value in series [2] (FaSSGF, pH 1.6, 37°C, 0.5 h, listed as Crystal form N) is recorded as more than 7.61 mg/mL; in series [2] (FaSSIF, pH 6.5, 37°C, 0.5 h, listed as Crystal form N), 0.06 mg/mL (≈ 117 µM); in series [2] (FeSSIF, pH 5.0-5.1, 37°C, 0.5 h, listed as Crystal form N) it was 0.80 mg/mL (≈ 1550 µM). In addition, the “Solubility (mg/mL) 2h” value in series [2] (FaSSGF, pH 1.6, 37°C, listed as Crystal form N) was more than 7.89 mg/mL; in series [2] (FaSSIF, pH 6.5, 37°C, listed as Crystal form N), 0.07 mg/mL (≈ 136 µM); in series [2] (FeSSIF, pH 5.0-5.1, 37°C, listed as Crystal form N), 0.97 mg/mL (≈ 1880 µM); in series [2] (Water, 37°C, listed as Crystal form N), 0.011 mg/mL (≈ 21.4 µM). The “Solubility (mg/mL) 24 h” value in series [2] (FaSSGF, pH 1.6, 37°C, 24 h, listed as Crystal form N) is reported as more than 7.98 mg/mL; in series [2] (FaSSIF, pH 6.5, 37°C, 24 h, listed as Crystal form N) it was 0.08 mg/mL (≈ 155 µM); in series [2] (FeSSIF, pH 5.0-5.1, 37°C, 24 h, listed as Crystal form N) it was 0.94 mg/mL (≈ 1830 µM). Also, the “XRPD for remaining solid” value in series [2] (setting [7]) is recorded as “No solid”; in series [2] (setting [8]) it was “Crystal form N”; in series [2] (setting [9]), “Crystal form N”; in series [2] (setting [10]) it was “Crystal form N”. Besides, the solubility at 0.5 h in series [2] (water, 37°C, 0.5 h, read-out: Solubility (mg/mL) 0.5 h) came to 0.004 mg/mL (≈ 7.77 µM). The solubility at 24 h in series [2] (water, 37°C, 24 h, read-out: Solubility (mg/mL) 24 h) turned out to be 0.004 mg/mL (≈ 7.77 µM). Further, the “Results after 7 days” value in series [3] (Accelerated, 40°C/75% RH) is given as “No change”; in series [3] (High humidity, 25°C/92.5% RH), “No change”; in series [3] (Light, 25°C/4500 Lux), “No change”. In addition, the “Results after 15 days” value in series [3] (Accelerated, 40°C/75% RH) is reported as “No change”; in series [3] (High humidity, 25°C/92.5% RH), “No change”; in series [3] (Light, 25°C/4500 Lux), “No change”.
